Assay results from patent publication US20240368177A1, “5-AMINO-6,8-DIHYDRO-1H-FURO[3,4-d]PYRROLO[3,2-b]PYRIDINE-2-CARBOXAMIDE DERIVATIVES AS MTA-COOPERATIVE INHIBITORS OF PRMT5” (BeiGene Switzerland GmbH, priority 2023, published 2024).

Columns and labels:
HCT116-MTAP-KO = assay: Cell killing in HCT116 isogenic pair (Cell Titer-Glo viability), MTAP knock-out cells; type: cell-based, human; details: Homo sapiens, HCT-116, 144 h, 6 days incubation, 0-10 μM, * = more than 50% viability inhibition at tested concentration without a full curve
Outline: (§1)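 Viability was read by CellTiter-Glo luminescence after 6 days of compound treatment (0–10 μM final, 37° C, 5% CO2), and IC50 values were fitted. The isogenic HCT116 pair, MTAP-KO clone versus mock-KO MTAP-wildtype, was grown in RPMI 1640 plus 10% FBS and seeded the day before.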

HCT116-mock-RNA-KO = assay: Cell killing in HCT116 isogenic pair (Cell Titer-Glo viability), mock knock-out cells with MTAP wildtype genotype; type: cell-based, human; details: Homo sapiens, HCT-116, 144 h, 6 days incubation, 0-10 μM
Outline: as §1

| SMILES | IC50 (HCT116-MTAP-KO) | IC50 (HCT116-mock-RNA-KO) |
| --- | --- | --- |
| C[C@H](c1ncc(C2CC2)cc1F)N(C)C(=O)c1cc2nc(N)c3c(c2[nH]1)CO[C@@H]3C [Example 142, (R)-5-amino-N—((R)-1-(5-cyclopropyl-3-fluoropyridin-2-yl)ethyl)-N,6-dimethyl-6,8-dihydro-1H-furo[3,4-d]pyrrolo[3,2-b]pyridine-2-carboxamide] | 2.6 nM | 477 nM |
| CCN(C(=O)c1cc2nc(N)c3c(c2[nH]1)COC3)[C@H](C)c1ncc(Br)cc1F [Example 143, (R)-5-amino-N-(1-(5-bromo-3-fluoropyridin-2-yl)ethyl)-N-ethyl-6,8-dihydro-1H-furo[3,4-d]pyrrolo[3,2-b]pyridine-2-carboxamide] | 11 nM | 1380 nM |
| CCN(C(=O)c1cc2nc(N)c3c(c2[nH]1)COC3)[C@@H](C)c1ncc(Br)cc1F [Example 144, (S)-5-amino-N-(1-(5-bromo-3-fluoropyridin-2-yl)ethyl)-N-ethyl-6,8-dihydro-1H-furo[3,4-d]pyrrolo[3,2-b]pyridine-2-carboxamide] | 543 nM | > 10000 nM |
| C[C@H](c1ccc(C(F)(F)F)cc1F)N(C)C(=O)c1cc2nc(N)c3c(c2[nH]1)COC3 [Example 145, (R)-5-amino-N-(1-(2-fluoro-4-(trifluoromethyl)phenyl)ethyl)-N-methyl-6,8-dihydro-1H-furo[3,4-d]pyrrolo[3,2-b]pyridine-2-carboxamide] | 26 nM | 3430 nM |
| C[C@@H](c1ccc(C(F)(F)F)cc1F)N(C)C(=O)c1cc2nc(N)c3c(c2[nH]1)COC3 [Example 146, (S)-5-amino-N-(1-(2-fluoro-4-(trifluoromethyl)phenyl)ethyl)-N-methyl-6,8-dihydro-1H-furo[3,4-d]pyrrolo[3,2-b]pyridine-2-carboxamide] | 316 nM | > 10000 nM |
| C[C@H]1OCc2c1c(N)nc1cc(C(=O)N(C)[C@@H](C)c3ccc(C(F)(F)F)cc3F)[nH]c21 [Example 147, (R)-5-amino-N—((S)-1-(2-fluoro-4-(trifluoromethyl)phenyl)ethyl)-N,6-dimethyl-6,8-dihydro-1H-furo[3,4-d]pyrrolo[3,2-b]pyridine-2-carboxamide] | 1230 nM | 5420 nM |
| C[C@H](c1ccc(C(F)(F)F)cc1F)N(C)C(=O)c1cc2nc(N)c3c(c2[nH]1)CO[C@@H]3C [Example 148, (R)-5-amino-N—((R)-1-(2-fluoro-4-(trifluoromethyl)phenyl)ethyl)-N,6-dimethyl-6,8-dihydro-1H-furo[3,4-d]pyrrolo[3,2-b]pyridine-2-carboxamide] | 19 nM | 2440 nM |
| C[C@@H](c1c(F)cc(C(F)(F)F)cc1F)N(C)C(=O)c1cc2nc(N)c3c(c2[nH]1)COC3 [Example 149, (S)-5-amino-N-(1-(2,6-difluoro-4-(trifluoromethyl)phenyl)ethyl)-N-methyl-6,8-dihydro-1H-furo[3,4-d]pyrrolo[3,2-b]pyridine-2-carboxamide] | 2680 nM | > 10000 nM |
| C[C@H](c1c(F)cc(C(F)(F)F)cc1F)N(C)C(=O)c1cc2nc(N)c3c(c2[nH]1)COC3 [Example 150, (R)-5-amino-N-(1-(2,6-difluoro-4-(trifluoromethyl)phenyl)ethyl)-N-methyl-6,8-dihydro-1H-furo[3,4-d]pyrrolo[3,2-b]pyridine-2-carboxamide] | 32 nM | 2790 nM |
| Cc1cc([C@@H](C)N(C)C(=O)c2cc3nc(N)c4c(c3[nH]2)COC4)c(F)cc1C1CC1 [Example 151, (R)-5-amino-N-(1-(4-cyclopropyl-2-fluoro-5-methylphenyl)ethyl)-N-methyl-6,8-dihydro-1H-furo[3,4-d]pyrrolo[3,2-b]pyridine-2-carboxamide] | 85 nM | > 10000 nM |
| Cc1cc([C@H](C)N(C)C(=O)c2cc3nc(N)c4c(c3[nH]2)COC4)c(F)cc1C1CC1 [Example 152, (S)-5-amino-N-(1-(4-cyclopropyl-2-fluoro-5-methylphenyl)ethyl)-N-methyl-6,8-dihydro-1H-furo[3,4-d]pyrrolo[3,2-b]pyridine-2-carboxamide] | 1280 nM | > 10000 nM |
| C[C@H](c1ncc(C2CC2)cc1F)N(C(=O)c1cc2nc(N)c3c(c2[nH]1)COC3)C1CCC1 [Example 153, (R)-5-amino-N-cyclobutyl-N-(1-(5-cyclopropyl-3-fluoropyridin-2-yl)ethyl)-6,8-dihydro-1H-furo[3,4-d]pyrrolo[3,2-b]pyridine-2-carboxamide] | 10 nM | 610 nM |
| C[C@@H](c1ncc(C2CC2)cc1F)N(C(=O)c1cc2nc(N)c3c(c2[nH]1)COC3)C1CCC1 [Example 154, (S)-5-amino-N-cyclobutyl-N-(1-(5-cyclopropyl-3-fluoropyridin-2-yl)ethyl)-6,8-dihydro-1H-furo[3,4-d]pyrrolo[3,2-b]pyridine-2-carboxamide] | 1630 nM | 8520 nM |
| C[C@H](c1ncc(C(F)(F)F)cc1F)N(C(=O)c1cc2nc(N)c3c(c2[nH]1)COC3)C1CCC1 [Example 155, (R)-5-amino-N-cyclobutyl-N-(1-(3-fluoro-5-(trifluoromethyl)pyridin-2-yl)ethyl)-6,8-dihydro-1H-furo[3,4-d]pyrrolo[3,2-b]pyridine-2-carboxamide] | 19 nM | 2250 nM |
| C[C@@H](c1ncc(C(F)(F)F)cc1F)N(C(=O)c1cc2nc(N)c3c(c2[nH]1)COC3)C1CCC1 [Example 156, (S)-5-amino-N-cyclobutyl-N-(1-(3-fluoro-5-(trifluoromethyl)pyridin-2-yl)ethyl)-6,8-dihydro-1H-furo[3,4-d]pyrrolo[3,2-b]pyridine-2-carboxamide] | 523 nM | > 10000 nM |
| COCCN(C(=O)c1cc2nc(N)c3c(c2[nH]1)COC3)[C@H](C)c1ncc(C(F)(F)F)cc1F [Example 157, (R)-5-amino-N-(1-(3-fluoro-5-(trifluoromethyl)pyridin-2-yl)ethyl)-N-(2-methoxyethyl)-6,8-dihydro-1H-furo[3,4-d]pyrrolo[3,2-b]pyridine-2-carboxamide] | 64 nM | > 10000 nM |
| COCCN(C(=O)c1cc2nc(N)c3c(c2[nH]1)COC3)[C@@H](C)c1ncc(C(F)(F)F)cc1F [Example 158, (S)-5-amino-N-(1-(3-fluoro-5-(trifluoromethyl)pyridin-2-yl)ethyl)-N-(2-methoxyethyl)-6,8-dihydro-1H-furo[3,4-d]pyrrolo[3,2-b]pyridine-2-carboxamide] | 2020 nM | > 10000 nM |
| C[C@H](c1ccc(C2CC2)cn1)N(C(=O)c1cc2nc(N)c3c(c2[nH]1)COC3)C1CCC1 [Example 159, (R)-5-amino-N-cyclobutyl-N-(1-(5-cyclopropylpyridin-2-yl)ethyl)-6,8-dihydro-1H-furo[3,4-d]pyrrolo[3,2-b]pyridine-2-carboxamide] | 36 nM | 2580 nM |
| C[C@@H](c1ccc(C2CC2)cn1)N(C(=O)c1cc2nc(N)c3c(c2[nH]1)COC3)C1CCC1 [Example 160, (S)-5-amino-N-cyclobutyl-N-(1-(5-cyclopropylpyridin-2-yl)ethyl)-6,8-dihydro-1H-furo[3,4-d]pyrrolo[3,2-b]pyridine-2-carboxamide] | 598 nM | > 10000 nM |
| CCN(C(=O)c1cc2nc(N)c3c(c2[nH]1)COC3)[C@@H]1COC2(CC2)c2cc(C(F)(F)F)ccc21 [Example 161, (S)-5-amino-N-ethyl-N-(7′-(trifluoromethyl)spiro[cyclopropane-1,1′-isochroman]-4′-yl)-6,8-dihydro-1H-furo[3,4-d]pyrrolo[3,2-b]pyridine-2-carboxamide] | 39 nM | 2800 nM |
| CN(C(=O)c1cc2nc(N)c3c(c2[nH]1)COC3)[C@@H]1CCOc2cc(C(F)(F)F)ccc21 [Example 162, (R)-5-amino-N-methyl-N-(7-(trifluoromethyl)chroman-4-yl)-6,8-dihydro-1H-furo[3,4-d]pyrrolo[3,2-b]pyridine-2-carboxamide] | 186 nM | > 10000 nM |
| CN(C(=O)c1cc2nc(N)c3c(c2[nH]1)COC3)[C@H]1COCc2cc(C(F)(F)F)cnc21 [Example 163, (R)-5-amino-N-methyl-N-(3-(trifluoromethyl)-7,8-dihydro-5H-pyrano[4,3-b]pyridin-8-yl)-6,8-dihydro-1H-furo[3,4-d]pyrrolo[3,2-b]pyridine-2-carboxamide] | > 10000 nM | > 10000 nM |
| CN(C(=O)c1cc2nc(N)c3c(c2[nH]1)COC3)[C@@H]1COCc2cc(C(F)(F)F)cnc21 [Example 164, (S)-5-amino-N-methyl-N-(3-(trifluoromethyl)-7,8-dihydro-5H-pyrano[4,3-b]pyridin-8-yl)-6,8-dihydro-1H-furo[3,4-d]pyrrolo[3,2-b]pyridine-2-carboxamide] | 145 nM | > 10000 nM |
| C[C@H]1OCc2c1c(N)nc1cc(C(=O)N(C)[C@@H]3COC4(CC4)c4cc(C(F)(F)F)ccc43)[nH]c21 [Example 165, (R)-5-amino-N,6-dimethyl-N—((S)-7′-(trifluoromethyl)spiro[cyclopropane-1,1′-isochroman]-4′-yl)-6,8-dihydro-1H-furo[3,4-d]pyrrolo[3,2-b]pyridine-2-carboxamide] | 17 nM | 2570 nM |
| CCN(C(=O)c1cc2nc(N)c3c(c2[nH]1)CO[C@@H]3C)[C@@H]1COC2(CC2)c2cc(C(F)(F)F)ccc21 [Example 166, (R)-5-amino-N-ethyl-6-methyl-N—((S)-7′-(trifluoromethyl)spiro[cyclopropane-1,1′-isochroman]-4′-yl)-6,8-dihydro-1H-furo[3,4-d]pyrrolo[3,2-b]pyridine-2-carboxamide] | 19 nM | 2150 nM |
| CN(C(=O)c1cc2nc(N)c3c(c2[nH]1)COC3)[C@H]1COC2(CC2)c2cc(C(F)(F)F)cc(F)c21 [Example 167, (R)-5-amino-N-(5′-fluoro-7′-(trifluoromethyl)spiro[cyclopropane-1,1′-isochroman]-4′-yl)-N-methyl-6,8-dihydro-1H-furo[3,4-d]pyrrolo[3,2-b]pyridine-2-carboxamide] | 697 nM | 3320 nM |
